In data set [1] the test system is IL-2-FL/Gaussia Luciferase. The data set is described as follows: Dox Induced IL2-FL-Gluc Assay. It is filed as cell-based. The conditions noted are these: for IC50: 24 hr Dox induction, 293FRT/TO cells, read-out: 24 hr Dox Inducible IL2FLGluc 293FRT/TO: Mean IC50; for 24 hr Dox Inducible IL2FLGluc 293FRT/TO: IL2/PD1: ratio of IL2FLGluc IC50 to PD1ssGluc IC50. In a few lines:
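Flp-In 293 T-REx cells stably carrying doxycycline-inducible full-length IL-2 (aa 1-153) fused at its C-terminus to Gaussia luciferase, selected with hygromycin and blasticidin. Cells were plated the day before, then treated with compounds in DMSO/media containing doxycycline at 37° C, 5% CO2.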

Data set [2] can be described thus: Liver Microsome Stability Assay (monkey). The conditions noted are these: monkey liver microsomes, with NADPH, 1.0 uM compound.
Experimental: (§1) Stability of a compound was assessed in the presence of liver microsomes from various sources—mouse, rat, monkey and human liver microsomes. 1.0 uM compound, 0.4% DMSO in 0.1 M Potassium Phosphate with 1.0 mg/mL liver microsomes, were incubated at 37° C. with or without 1 mM NADPH. The samples were quenched at 0, and 30 minutes.
Data set [3] is described as follows: Liver Microsome Stability Assay (rat). Particulars: rat liver microsomes, with NADPH, 1.0 uM compound.
Experimental: as §1
In data set [4] the test system is TNFα-FL/Gaussia Luciferase. The data set is described as follows: Dox Induced TNFα-FL-Gluc Assay. Particulars: for IC50: 24 hr Dox induction, 293FRT/TO cells, read-out: 24 hr Dox Inducible TNFaFLGluc 293FRT/TO: Mean IC50; for 24 hr Dox Inducible TNFaFLGluc 293FRT/TO: TNF/PD1: ratio of TNFaFLGluc IC50 to PD1ssGluc IC50. It is filed as cell-based. The method, boiled down: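 Flp-In 293 T-REx cells stably expressing full-length TNFα (aa 1-233) fused at its C-terminus to Gaussia luciferase under tetracycline-regulated control were plated the day before assay. Compound dilutions in DMSO/media containing doxycycline were added and incubated at 37 °C, 5% CO2. Unspecified stereochemistry denotes stereoisomer mixtures.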

The subject of data set [5] is PD1-ss+10aa/Gaussia Luciferase. The data set is described as follows: Dox-Induced PD1-ss-Gluc Assay. The conditions noted are these: 24 hr Dox induction, 293FRT/TO cells, read-out: 24 hr Dox Inducible PD1ssGluc 293FRT/TO: Mean IC50. It is filed as cell-based. In a few lines: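 Flp-In 293 T-REx, stable line; Tet-regulated PD1-ss+10aa fused to Gaussia luciferase; plated day prior; cpd + doxycycline in DMSO/media; 37 °C, 5% CO2.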

The nature of data set [6]: Liver Microsome Stability Assay (mouse). The conditions noted are these: mouse liver microsomes, with NADPH, 1.0 uM compound.
Experimental: as §1
Data set [7] concerns multiple myeloma cell line NCI-H929. Briefly: H929 Cell Viability Assay. It is filed as cell-based, human. The conditions noted are these: Homo sapiens, NCI-H929, 48 h, NCI-H929 cells, Celltiter-Glo. The method, boiled down: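 NCI-H929 cells, resuspended in RPMI 1640 with 10% FBS and 2 mM glutamine, were treated with compound dilutions in DMSO/media and incubated 48 hours at 37° C, 5% CO2. Viability was read by CellTiter-Glo luminescence. Compounds drawn without stereochemistry were tested as stereoisomer mixtures.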

Data set [8] in a line: Liver Microsome Stability Assay (human). The conditions noted are these: human liver microsomes, with NADPH, 1.0 uM compound.
Experimental: as §1
Data set [9] has as its system multiple myeloma cell line U266B1. Briefly: U266 Cell Viability Assay. It is filed as cell-based, human. The conditions noted are these: Homo sapiens, U-266, 48 h, U266B1 cells, Celltiter-Glo. The method, boiled down:
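Cells grown in RPMI 1640 with 10% FBS, 2 mM glutamine and penicillin/streptomycin were exposed to compound dilutions in DMSO/media for 48 hours at 37° C., 5% CO2. Viability was read by CellTiter-Glo luminescence. Undefined stereocentres mean data for stereoisomer mixtures.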

In data set [10] the test system is HER3-ss+4aa/Gaussia Luciferase. The data set is described as follows: Dox-Induced Her3-ss-Gluc Assay. In kind it is cell-based. The conditions noted are these: 24 hr Dox induction, 293FRT/TO cells, read-out: 24 hr Dox Inducible Her3(ss + 4)Gluc 293FRT/TO: Mean IC50. In a few lines:
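Stable Flp-In 293 T-REx line expressing Gaussia luciferase fused to the HER3 signal sequence plus 4 amino acids under tetracycline-regulated (T-REx) control. Cells plated the day before, then treated with compound dilutions in DMSO/media containing doxycycline and incubated at 37° C., 5% CO2.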

Where [11] appears, read: '<=>' given where both are I.A.

Where two headings read alike, the source gives them in different places.

Consider `CC(C)c1ccc(/C=C/c2csc(NC(=O)c3cccn3Cc3cc(F)nc(F)c3)n2)nc1` [Compound B87, (E)-1-((2,6-difluoropyridin-4-yl)methyl)-N-(4-(2-(5-isopropylpyridin-2-yl)vinyl)thiazol-2-yl)-1H-pyrrole-2-carboxamide], for which the IC50 is more than 25000 nM in data set [1], more than 25000 nM in data set [4], 132 nM in [5] and more than 25000 nM in data set [10]. In [1], the “24 hr Dox Inducible IL2FLGluc 293FRT/TO: IL2/PD1” value is more than 190. The “Liver Microsome Stability (Multiple Species): Monkey - % Remaining after 30 min w/NADPH” value in [2] came to 0.04%. Moreover, the “Liver Microsome Stability (Multiple Species): Rat - % Remaining after 30 min w/NADPH” value in data set [3] came out at 0.18%. Moreover, the “24 hr Dox Inducible TNFaFLGluc 293FRT/TO: TNF/PD1” value in data set [4] is reported as more than 189. Besides, the “Liver Microsome Stability (Multiple Species): Mouse - % Remaining after 30 min w/NADPH” value in [6] is reported as 1.23%. For the same molecule, the EC50 stood at 9920 nM in data set [7] and 14100 nM in data set [9]. In addition, the “Liver Microsome Stability (Multiple Species): Human - % Remaining after 30 min w/NADPH” value in data set [8] was found to be 0.15%.

For `O=C(Nc1nc(/C=C/c2ncoc2C2CCCCC2)cs1)c1cccn1CC1CCOCC1` [Compound D4, (E)-N-(4-(2-(5-cyclohexyloxazol-4-yl)vinyl)thiazol-2-yl)-1-((tetrahydro-2H-pyran-4-yl)methyl)-1H-pyrrole-2-carboxamide], the IC50 in data set [1] (mean) is more than 25000 nM; in [4] (mean) it was more than 25000 nM; in data set [5] (mean) it was 1040 nM; in [10] (mean) it was 10600 nM. For the same molecule, the “24 hr Dox Inducible IL2FLGluc 293FRT/TO: IL2/PD1” value in data set [1] (setting [11]) was more than 24. Also, in data set [2], the “Liver Microsome Stability (Multiple Species): Monkey - % Remaining after 30 min w/NADPH” value is 1.35%. Further, in [3], the “Liver Microsome Stability (Multiple Species): Rat - % Remaining after 30 min w/NADPH” value is reported as 1.86%. For the same molecule, the “24 hr Dox Inducible TNFaFLGluc 293FRT/TO: TNF/PD1” value in data set [4] (setting [11]) is more than 24.1. In data set [6], the “Liver Microsome Stability (Multiple Species): Mouse - % Remaining after 30 min w/NADPH” value worked out at 29.8%. The EC50 in data set [7] and in data set [9] was more than 25000 nM throughout. For the same molecule, the “Liver Microsome Stability (Multiple Species): Human - % Remaining after 30 min w/NADPH” value in data set [8] is on record as 5.39%.

Consider `Cc1cccnc1N1CCC[C@@H]1c1csc(NC(=O)c2cccn2Cc2ccncc2)n1` [Compound E64, (R)-N-(4-(1-(3-methylpyridin-2-yl)pyrrolidin-2-yl)thiazol-2-yl)-1-(pyridin-4-ylmethyl)-1H-pyrrole-2-carboxamide], for which the IC50 in data set [1] (mean) was 70.5 nM; in data set [4] (mean) it was 377 nM; in [5] (mean), 70.3 nM; in data set [10] (mean) it was 106 nM. For the same molecule, in [1] (setting [11]), the “24 hr Dox Inducible IL2FLGluc 293FRT/TO: IL2/PD1” value came to 1. Further, the “Liver Microsome Stability (Multiple Species): Monkey - % Remaining after 30 min w/NADPH” value in [2] came to 7.11%. The “Liver Microsome Stability (Multiple Species): Rat - % Remaining after 30 min w/NADPH” value in data set [3] came to 0.16%. Moreover, the “24 hr Dox Inducible TNFaFLGluc 293FRT/TO: TNF/PD1” value in [4] (setting [11]) is 5.37. The “Liver Microsome Stability (Multiple Species): Mouse - % Remaining after 30 min w/NADPH” value in data set [6] worked out at 0.21%. In addition, the EC50 in data set [7] was 3100 nM; in [9] it was more than 25000 nM. The “Liver Microsome Stability (Multiple Species): Human - % Remaining after 30 min w/NADPH” value in [8] worked out at 6.7%.

Regarding `CC(=O)Nc1c(F)cc(N2CCC[C@@H]2c2csc(NC(=O)c3cccn3Cc3ccnc(F)c3)n2)cc1F` [Compound A99, (R)-N-(4-(1-(4-acetamido-3,5-difluorophenyl)pyrrolidin-2-yl)thiazol-2-yl)-1-((2-fluoropyridin-4-yl)methyl)-1H-pyrrole-2-carboxamide], the IC50 in data set [1] is 348 nM; in data set [4], 5910 nM; in [5], 127 nM; in data set [10], 284 nM. In addition, the “24 hr Dox Inducible IL2FLGluc 293FRT/TO: IL2/PD1” value in data set [1] turned out to be 2.8. Further, the “Liver Microsome Stability (Multiple Species): Monkey - % Remaining after 30 min w/NADPH” value in [2] is reported as 0.12%. Further, the “Liver Microsome Stability (Multiple Species): Rat - % Remaining after 30 min w/NADPH” value in [3] came to 0.49%. The “24 hr Dox Inducible TNFaFLGluc 293FRT/TO: TNF/PD1” value in data set [4] turned out to be 46.7. For the same molecule, in data set [6], the “Liver Microsome Stability (Multiple Species): Mouse - % Remaining after 30 min w/NADPH” value came to 1.28%. In addition, the 50% effective concentration (EC50) is 5300 nM in data set [7] and more than 25000 nM in [9]. The “Liver Microsome Stability (Multiple Species): Human - % Remaining after 30 min w/NADPH” value in data set [8] is 1.85%.

Consider `CC(=O)N1CCC[C@@H](Oc2ccc(N3CCC[C@@H]3c3csc(NC(=O)c4cccn4Cc4ccnc(F)c4)n3)cc2)C1` [Compound A83], for which the IC50 was found to be 232 nM in [1], 1530 nM in data set [4], 82.1 nM in data set [5] and 249 nM in data set [10]. Further, the “24 hr Dox Inducible IL2FLGluc 293FRT/TO: IL2/PD1” value in data set [1] is recorded as 2.8. In data set [2], the “Liver Microsome Stability (Multiple Species): Monkey - % Remaining after 30 min w/NADPH” value is listed as 0.16%. Further, the “Liver Microsome Stability (Multiple Species): Rat - % Remaining after 30 min w/NADPH” value in data set [3] came out at 16.6%. In data set [4], the “24 hr Dox Inducible TNFaFLGluc 293FRT/TO: TNF/PD1” value stood at 18.6. The “Liver Microsome Stability (Multiple Species): Mouse - % Remaining after 30 min w/NADPH” value in [6] stood at 0.55%. Moreover, the EC50 in data set [7] is 4000 nM; in data set [9] it was more than 25000 nM. In addition, the “Liver Microsome Stability (Multiple Species): Human - % Remaining after 30 min w/NADPH” value in data set [8] is reported as 0.64%.

As to `CC(=O)N1CCC(Oc2ccc(N3CCC[C@@H]3c3csc(NC(=O)c4cccn4Cc4ccnc(F)c4)n3)c(C#N)c2)CC1` [Compound A133, (R)-N-(4-(1-(4-((1-acetylpiperidin-4-yl)oxy)-2-cyanophenyl)pyrrolidin-2-yl)thiazol-2-yl)-1-((2-fluoropyridin-4-yl)methyl)-1H-pyrrole-2-carboxamide], the IC50 in [1] is 81.7 nM; in [4], 893 nM; in data set [5], 61 nM; in [10], 64.2 nM. Further, the “24 hr Dox Inducible IL2FLGluc 293FRT/TO: IL2/PD1” value in [1] was found to be 1.3. The “Liver Microsome Stability (Multiple Species): Monkey - % Remaining after 30 min w/NADPH” value in data set [2] is 0.15%. For the same molecule, the “Liver Microsome Stability (Multiple Species): Rat - % Remaining after 30 min w/NADPH” value in [3] is recorded as 1.42%. In addition, in data set [4], the “24 hr Dox Inducible TNFaFLGluc 293FRT/TO: TNF/PD1” value was found to be 14.6. The “Liver Microsome Stability (Multiple Species): Mouse - % Remaining after 30 min w/NADPH” value in data set [6] amounted to 0.98%. For the same molecule, the EC50 is 2010 nM in [7] and more than 25000 nM in data set [9]. For the same molecule, the “Liver Microsome Stability (Multiple Species): Human - % Remaining after 30 min w/NADPH” value in [8] is reported as 0.61%.

For `O=C(Nc1nc([C@H]2CCCN2c2ccc(F)cc2)cs1)c1cccn1Cc1ccncc1` [Compound A25, (R)-N-(4-(1-(4-fluorophenyl)pyrrolidin-2-yl)thiazol-2-yl)-1-(pyridin-4-ylmethyl)-1H-pyrrole-2-carboxamide], the IC50 in [1] came out at 17.5 nM; in data set [4], 240 nM; in data set [5] it was 9.92 nM; in [10], 20.7 nM. The “24 hr Dox Inducible IL2FLGluc 293FRT/TO: IL2/PD1” value in data set [1] amounted to 1.8. The “Liver Microsome Stability (Multiple Species): Monkey - % Remaining after 30 min w/NADPH” value in [2] was 1.66%. In addition, the “Liver Microsome Stability (Multiple Species): Rat - % Remaining after 30 min w/NADPH” value in data set [3] was 1.84%. In data set [4], the “24 hr Dox Inducible TNFaFLGluc 293FRT/TO: TNF/PD1” value turned out to be 24.2. In addition, the “Liver Microsome Stability (Multiple Species): Mouse - % Remaining after 30 min w/NADPH” value in [6] is recorded as 1.56%. For the same molecule, the EC50 in data set [7] is 412 nM; in data set [9], 16100 nM. The “Liver Microsome Stability (Multiple Species): Human - % Remaining after 30 min w/NADPH” value in data set [8] was determined as 3.01%.

(Values after patent US20230286973A1, “PROTEIN SECRETION INHIBITORS” (KEZAR LIFE SCIENCES, priority 2020, published 2023).)
